Where two headings read alike, the source gives them in different places.
What was measured:
[1] = test system: E. coli DH10B strains expressing PDC-3 variants; test: MIC, MH agar dilution (CLSI), variant strains taken together; type: cell-based, Escherichia coli
Procedure: (§1) Variant genes were synthesized into the pBC SK (-) vector by Celtek Bioscience (Franklin, TN). Mueller-Hinton (MH) agar-dilution MIC measurements were performed against isogenic transformants producing PDC-3 and nine variants of PDC-3 in pBC SK (-) according to the Clinical and Laboratory Standards Institute (CLSI) guidelines as previously described ([39], [48]). Avibactam, LP-06, and S02030 were tested at a constant 4 µg/ml in combination with various concentrations of ceftazidime. Piperacillin-tazobactam was maintained at a ratio of 8 piperacillin to 1 tazobactam. Ceftolozane-tazobactam was maintained at a ratio of 2 ceftolozane to 1 tazobactam. The MICs are reported as the concentrations at which bacterial growth was no longer observed. All MIC measurements were performed at least three times.

[2] = test system: E. coli DH10B pBC SK blaPDC-3 E221K; test: MIC, MH agar dilution (CLSI); type: cell-based, Escherichia coli; settings: for MIC: Escherichia coli
Procedure: as §1

[3] = test system: E. coli DH10B pBC SK blaPDC-3 Y223A; test: MIC, MH agar dilution (CLSI); type: cell-based; settings: Escherichia coli, β-lactam alone
Procedure: as §1

[4] = test system: E. coli DH10B pBC SK blaPDC-3 E221G; test: MIC, MH agar dilution (CLSI); type: cell-based; settings: Escherichia coli, β-lactam alone
Procedure: as §1

[5] = test system: E. coli DH10B pBC SK blaPDC-3 Y223H; test: MIC, MH agar dilution (CLSI); type: cell-based; settings: Escherichia coli, β-lactam alone
Procedure: as §1

[6] = test system: E. coli DH10B pBC SK blaPDC-3; test: MIC, MH agar dilution (CLSI); type: cell-based; settings: Escherichia coli
Procedure: as §1

P. aeruginosa PAO1 = test: MIC, MH agar dilution (CLSI); type: cell-based; settings: Pseudomonas aeruginosa; β-lactam alone; P. aeruginosa PAO1, control strain expressing PDC-1
Procedure: as §1

[7] = test system: E. coli DH10B pBC SK blaPDC-1; test: MIC, MH agar dilution (CLSI); type: cell-based; settings: Escherichia coli, β-lactam alone
Procedure: as §1

[8] = test system: E. coli DH10B pBC SK blaPDC-3 G216A; test: MIC, MH agar dilution (CLSI); type: cell-based; settings: Escherichia coli; β-lactam alone; E. coli DH10B pBC SK blaPDC-3 G216A (Table 2 prints G216)
Procedure: as §1

[9] = test system: E. coli DH10B pBC SK blaPDC-3 G216R; test: MIC, MH agar dilution (CLSI); type: cell-based; settings: Escherichia coli, β-lactam alone
Procedure: as §1

[10] = test system: E. coli DH10B pBC SK blaPDC-3 E221A; test: MIC, MH agar dilution (CLSI); type: cell-based; settings: Escherichia coli; β-lactam alone; E. coli DH10B pBC SK blaPDC-3 E221A (Table 2 prints E221)
Procedure: as §1

[11] = test system: E. coli DH10B pBC SK blaPDC-3 V213A; test: MIC, MH agar dilution (CLSI); type: cell-based; settings: Escherichia coli, β-lactam alone
Procedure: as §1

[12] = test system: E. coli DH10B pBC SK blaPDC-3 V213G; test: MIC, MH agar dilution (CLSI); type: cell-based; settings: Escherichia coli, β-lactam alone
Procedure: as §1

P. aeruginosa 18SH = test: MIC, MH agar dilution (CLSI); type: cell-based; settings: Pseudomonas aeruginosa, β-lactam alone, control strain expressing PDC-3
Procedure: as §1

E. coli DH10B pBC SK = test: MIC, MH agar dilution (CLSI); type: cell-based; settings: Escherichia coli, DH10BPBCSK, β-lactam alone
Procedure: as §1

E. coli DH10B = test: MIC, MH agar dilution (CLSI); type: cell-based; settings: Escherichia coli, β-lactam alone
Procedure: as §1

PDC-3 β-lactamase = target: T1, PDC-3 β-lactamase (Pseudomonas aeruginosa, UniProt P24735, T105A); test: Competitive inhibition assay with nitrocefin as reporter substrate (Ki app); type: biochemical
T1 construct: produces the corresponding PDC-3 protein without its signal peptide; made in house; host or cells: E. coli Origami 2 DE3, pET24a (+) blaPDC-3
Procedure: For competitive inhibition assays used to determine Ki app, 150 μM nitrocefin was used as the reporter substrate with increasing concentrations of ceftazidime or ceftolozane. Initial velocities were plotted against concentrations of ceftazidime or ceftolozane. Ki app obs were determined by dividing the slope by the y intercept. Ki app was calculated by correcting Ki app obs for nitrocefin affinity and concentration (equation 3). (3) Ki app=Ki app obs/[1+([NCF]/Km NCF)

[13] = target: T2, E221K variant of PDC-3 β-lactamase (Pseudomonas aeruginosa, UniProt P24735, E247K/T105A); test: Steady-state hydrolysis kinetics; type: biochemical; settings: substrate hydrolysis by E221K; 10 mM PBS pH 7.4, room temperature
T2 construct: produces the corresponding PDC-3 protein without its signal peptide; made in house; host or cells: E. coli Origami 2 DE3, pET24a (+) blaPDC-3-E221K
Procedure: Steady-state kinetic and inhibitor parameters were determined by using an Agilent 8453 diode array spectrophotometer at room temperature as previously described ([20], [43], [49]). Each assay was performed in 10 mM phosphate-buffered saline (PBS) at pH 7.4 at room temperature (RT = ∼25°C) in a quartz cuvette with a 1-cm path length. Measurements were obtained using ceftolozane and ceftazidime. The kinetic parameters, Vmax and Km, were obtained with a nonlinear least-squares fit of the data (Henri Michaelis-Menten, equation 1) using Origin 7.5VR (OriginLab, Northampton, MA).(1) v=Vmax [S]/Km+[S]

[14] = read-out: MIC value, β-lactam alone, E. coli DH10B pBC SK blaPDC-3
[15] = β-lactam alone, E. coli DH10B pBC SK blaPDC-3 E221K, read-out: MIC value
[16] = β-lactam alone, E. coli DH10B pBC SK blaPDC-3, read-out: MIC value

| SMILES | MIC ([2]; read-out: MIC value) | MIC [3] | MIC [4] | MIC [5] | MIC [6, 14] | MIC (P. aeruginosa PAO1) | MIC [7] | MIC [8] | MIC [9] | MIC [10] | MIC [11] | MIC [12] | MIC (P. aeruginosa 18SH) | MIC (E. coli DH10B pBC SK) | MIC (E. coli DH10B) | also measured |
| --- | --- | --- | --- | --- | --- | --- | --- | --- | --- | --- | --- | --- | --- | --- | --- | --- |
| C[C@]1(Cn2ccnn2)[C@H](C(=O)O)N2C(=O)C[C@H]2S1(=O)=O [tazobactam] |  |  |  |  |  |  |  |  |  |  |  |  |  |  |  | fold attenuation of variant strain MICs compared to single antibiotic ([1]; piperacillin-tazobactam and ceftolozane-tazobactam combinations): 2- to 8 fold |
| C[C@@H](O)[C@H]1C(=O)N2C(C(=O)O)=C(SCCN=CN)C[C@H]12 [Imipenem] | 0.5 µg/mL | 0.5 µg/mL | 0.5 µg/mL | 0.5 µg/mL | 0.25 µg/mL | 2 µg/mL | 0.25 µg/mL | 0.5 µg/mL | 0.5 µg/mL | 0.5 µg/mL | 0.5 µg/mL | 0.5 µg/mL | 2 µg/mL | 0.25 µg/mL |  |  |
| CO/N=C(\C(=O)N[C@@H]1C(=O)N2C(C(=O)O)=C(COC(C)=O)CS[C@H]12)c1csc(N)n1 [Cefotaxime] | 4 µg/mL | 16 µg/mL | 8 µg/mL | 8 µg/mL | 8 µg/mL | 16 µg/mL | 8 µg/mL | 8 µg/mL | 16 µg/mL | 16 µg/mL | 16 µg/mL | 16 µg/mL | > 256 µg/mL | < 0.06 µg/mL | < 0.06 µg/mL |  |
| Cn1c(N)c(NC(=O)NCCN)c[n+]1CC1=C(C(=O)O)N2C(=O)[C@@H](NC(=O)/C(=N\OC(C)(C)C(=O)[O-])c3nsc(N)n3)[C@H]2SC1 [Ceftolozane] | 64 µg/mL | 32 µg/mL | 16 µg/mL | 8 µg/mL | 0.5 µg/mL | 0.5 µg/mL | 0.5 µg/mL | 2 µg/mL | 8 µg/mL | 2 µg/mL | 4 µg/mL | 4 µg/mL | 8 µg/mL | 0.5 µg/mL | 0.5 µg/mL | Ki (PDC-3 β-lactamase; 150 μM nitrocefin reporter substrate): 1300 µM; fold difference in Ki app between ceftolozane and ceftazidime (PDC-3 β-lactamase; ceftolozane Ki app higher than ceftazidime Ki app): 60 fold; fold increase in MIC relative to the wild-type strain ([2]; E221K variant strain versus PDC-3 strain, E. coli DH10B): 128 fold; MIC ([2]; read-out: ceftolozane MIC): 64 µM; MICs when paired with avibactam ([1]; oxyimino cephalosporin paired with avibactam): ≤ 1 mg/L; Km [13]: 341 ± 64 µM; Vmax [13]: 1.0 ± 0.1 µM/s; kcat [13]: 10 ± 1 s⁻¹; MIC ([6]; read-out: ceftolozane MIC, PDC-3 strain, Table 2): 0.5 µM |
| CC1(C)S[C@@H]2[C@H](NC(=O)[C@H](N)c3ccccc3)C(=O)N2[C@H]1C(=O)O [Ampicillin] |  | 256 µg/mL | 512 µg/mL | 512 µg/mL |  | 2050 µg/mL | 256 µg/mL | 1020 µg/mL | 1020 µg/mL | 1020 µg/mL | 1020 µg/mL | 1020 µg/mL | 4100 µg/mL | 4 µg/mL | 4 µg/mL | MIC [2, 15]: 256 µg/mL; MIC [6, 16]: 256 µg/mL |
| CCN1CCN(C(=O)N[C@@H](C(=O)N[C@@H]2C(=O)N3[C@@H]2SC(C)(C)[C@@H]3C(=O)O)c2ccccc2)C(=O)C1=O [Piperacillin] |  | 16 µg/mL | 64 µg/mL | 32 µg/mL |  | 4 µg/mL | 16 µg/mL | 64 µg/mL | 16 µg/mL | 128 µg/mL | 64 µg/mL | 64 µg/mL | 512 µg/mL | 2 µg/mL | 2 µg/mL | MIC [2, 15]: 16 µg/mL; MIC [6, 16]: 16 µg/mL |
| CO/N=C(\C(=O)N[C@@H]1C(=O)N2C(C(=O)[O-])=C(C[N+]3(C)CCCC3)CS[C@H]12)c1csc(N)n1 [Cefepime] | 0.25 µg/mL | 0.25 µg/mL | 0.125 µg/mL | 0.125 µg/mL | ≤ 0.06 µg/mL | 4 µg/mL | 0.125 µg/mL | 0.125 µg/mL | 0.25 µg/mL | 0.125 µg/mL | 0.125 µg/mL | 0.125 µg/mL | 128 µg/mL | < 0.06 µg/mL | 0.125 µg/mL |  |
| C[C@H]1[C@H](NC(=O)/C(=N\OC(C)(C)C(=O)O)c2csc(N)n2)C(=O)N1S(=O)(=O)O [Aztreonam] | 8 µg/mL | 4 µg/mL | 4 µg/mL | 4 µg/mL | 1 µg/mL | 4 µg/mL | 0.5 µg/mL | 8 µg/mL | 16 µg/mL | 4 µg/mL | 8 µg/mL | 8 µg/mL | 128 µg/mL | 0.125 µg/mL | 0.125 µg/mL |  |
